Laboratory results as given in publication PMC12120022, “Discovery and chemical optimisation of a potent, Bi-cyclic antimicrobial inhibitor of Escherichia coli PBP3” (Communications Biology, 2025).
*1 amine or outer side, *2 acyl side, *3 side chain or, on linkers, in order; H or OH if unused. Where a SMILES comes first, the peptide text is derived from it. Bridges are numbered along the chain shown (N, C = ends). [ ]: non-standard residue; d: D form. TATA = O=C(CC[*:1])N1CN(C(=O)CC[*:2])CN(C(=O)CC[*:3])C1; Trp(6-Cl) = N[C@@H](Cc1c[nH]c2cc(Cl)ccc12)C(=O)O; hArg = N=C(N)NCCCC[C@H](N)C(=O)O

Tests used:
[1] = molecular target: T1, EcPBP3 (Escherichia coli, UniProt P0AD68); assay: SPR binding assay on immobilised EcPBP3; conditions: 37 °C, kinetic fitting; NB = no binding at 2500 nM (Tables S-4, S-5) or 5000 nM (Table 1); read-out: Kd (nM) by SPR (geomean)
T1 construct: For assays, selections and SPR a construct with residues 60–588 which has the N-terminal domain, but not the transmembrane helix, was used; made in house
Method: Surface plasmon resonance (SPR) assays were performed using EcPBP3 immobilized on CM5 sensor chips (GE Healthcare) via amine-coupling chemistry in assay buffer (10 mM HEPES pH 8.0, 200 mM NaCl, 0.05% (v/v) surfactant P20). The chip surface was activated by injection (10 μL min^–1) of 0.4 M EDC and 0.1 M NHS (in a 1:1 ratio) with a 7 min contact time. Protein was diluted to 25 μg mL^–1 in 10 mM MOPS (pH 7.0) and injected over the activated sensor chip surface to reach immobilization of 1500-2500 response units. Excess hydroxysuccinimidyl groups on the chip surface were deactivated by injection (10 μL min^–1) of 1 M ethanolamine hydrochloride pH 8.0 with a 7 min contact time. Reference flow cells were prepared as described, but without ligand (EcPBP3 protein).
Binding analysis runs were performed at 37 °C in running buffer (10 mM HEPES pH 8.0, 200 mM NaCl, 0.05% (w/v) Tween-20, 2% (v/v) DMSO). Test compounds (and control runs of buffer only) were injected in running buffer over the EcPBP3 chip and reference flow cell, at flow rate of 50 μL min^–1 for 150 s contact time and 2400 s dissociation time. Each injection was followed by a wash with 50% (v/v) DMSO. All compounds were tested in at least two independent biological replicates unless otherwise stated.
Raw sensorgrams data were solvent-corrected, reference-subtracted and blank-buffer-subtracted (double-referencing) before kinetic and affinity analysis to account for non-specific binding and injection artifacts. Equilibrium dissociation constant (Kd) values was determined using the Biacore™ Insight Evaluation Software (version 4.0.8 or version 5.0.17) using kinetic fitting. Kd values presented are the geometric mean of at least two biological replicates.

[2] = test system: E. coli GKCW102 (EcPore); conditions: caMHB; biological replicates or their range
Method: To evaluate the engagement of EcPBP3 by a bicyclic peptide in whole cells lacking the outer membrane permeability barrier, peptides were screened in ‘hyperporinated’ E. coli strains in which a constitutively open FhuA pore (FhuAΔC/Δ4L, lacking N-terminal cork domain and external loops) was chromosomally expressed under control of an arabinose-inducible promoter.
Minimal inhibition concentration (MIC) assays were performed in accordance with CLSI standards, using cation-adjusted Mueller Hinton broth (caMHB; Sigma Aldrich) unless otherwise specified. Induction of pore expression in hyperporinated strains E. coli GKCW101 and GKCW102 was performed by addition of 0.1% (w/v) L-arabinose to cultures at OD600 ~ 0.3, with caMHB as the culture medium.

[3] = Mouse blood stability; format: in vitro ADME, CD-1 mice; conditions: CD-1, mouse, whole blood (EDTA as anticoagulant), 37 °C, SAR peptides, read-out: Blood stability (t1/2) (converted)
Method: Stability assays were performed using freshly collected matrices from CD-1 mice, with anticoagulant as stated per dataset. Compound stocks in DMSO were tested at 5 μM final concentration (0.5% (v/v) DMSO). Compounds were incubated in blood or plasma at 37 °C for 24 h, with sampling at 0, 1, 2, 4, 6 and 24 h. Samples were prepared via protein precipitation using organic solvent containing internal standard, and analyzed by LC-MS/MS. Compound remaining was quantified based on the ratio of analyte to internal standard, and the half-life (t1/2) was calculated from a log linear plot of % remaining versus time.

[4] = molecular target: T1, EcPBP3; assay: Fluorescence polarisation competition assay with BOCILLIN-FL as tracer; format: binding; conditions: competition format, NB, non-binder (100 μM top concentration); for IC50: read-out: IC50 (nM) by fluorescence polarisation with Bocillin FL as tracer, Geometric mean (Lower 95% CI of geo. Mean; Upper 95% CI of geo. Mean, n=number of values)
Method: Binding of output peptides to EcPBP3 was evaluated using a fluorescence polarisation (FP) assay.
[…] 10 µL of protein (9.4 nM) was mixed with either 5 µL of peptide or 5 µL of buffer and then the assay was initiated by the addition of 10 µL of tracer (1 nM) (final volume 25 µL), in a black 384 low bind, low volume plate (Corning). The buffer was 10 mM HEPES (Sigma), 2% (v/v) glycerol (Sigma), 300 mM NaCl (Sigma), adjusted to pH 8. The plate was incubated for 1 h at 25 °C and then read in a PHERAstar FS (BMG) using with an “FP 485 520 520” optic module (excitation 485 nm, emission 520 nm). The gain was determined immediately prior to the read on a tracer-only well.
Dotmatics (Dotmatics) workflows performing the above calculations were used to process the data. Values quoted are the geometric means of at least 2 repeats.

T1 sequence (P0AD68 60-588): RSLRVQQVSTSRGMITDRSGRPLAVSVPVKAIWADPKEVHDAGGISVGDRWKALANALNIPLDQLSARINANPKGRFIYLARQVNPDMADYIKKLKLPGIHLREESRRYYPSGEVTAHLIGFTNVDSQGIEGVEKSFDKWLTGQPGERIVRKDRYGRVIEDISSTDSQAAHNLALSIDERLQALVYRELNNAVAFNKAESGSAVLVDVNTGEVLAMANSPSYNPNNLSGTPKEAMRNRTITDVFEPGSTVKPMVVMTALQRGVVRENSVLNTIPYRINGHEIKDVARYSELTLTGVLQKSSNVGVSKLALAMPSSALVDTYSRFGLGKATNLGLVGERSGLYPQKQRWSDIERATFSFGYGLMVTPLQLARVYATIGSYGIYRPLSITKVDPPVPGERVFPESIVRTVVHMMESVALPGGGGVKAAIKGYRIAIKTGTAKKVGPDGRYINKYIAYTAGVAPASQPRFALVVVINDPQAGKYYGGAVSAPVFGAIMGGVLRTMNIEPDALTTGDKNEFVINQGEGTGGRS

Structure (SMILES)	half-life at 5 μM [3]	IC50 [4]	further results
C[C@H](N)C(=O)N[C@H]1CSCCC(=O)N2CN3CN(C2)C(=O)CCSC[C@H](NC(=O)[C@H](CCCCN)NC(=O)[C@@H]2CCCN2C(=O)[C@H](Cc2ccccc2)NC(=O)[C@H](CO)NC1=O)C(=O)N1CCC[C@H]1C(=O)N[C@@H](Cc1c[nH]c2ccccc12)C(=O)N[C@H](C)C(=O)N[C@@H](CCC(=O)O)C(=O)NCC(=O)N[C@H](C(=O)N[C@@H](C)C(N)=O)CSCCC3=O [Peptide 69] (HELM PEPTIDE1{A.C.S.F.P.K.C.P.W.[dA].E.G.C.A.[am]}|CHEM1{[O=C(CC[*:1])N1CN(C(=O)CC[*:2])CN(C(=O)CC[*:3])C1]}$PEPTIDE1,CHEM1,2:R3-1:R1|PEPTIDE1,CHEM1,7:R3-1:R2|PEPTIDE1,CHEM1,13:R3-1:R3$$$V2.0)	–	–	Kd [1]: > 2500 nM; MIC E. coli GKCW102 (EcPore) [2]: > 16 µg/mL
CC(=O)N[C@@H](C)C(=O)N[C@H]1CSCCC(=O)N2CN3CN(C2)C(=O)CCSC[C@H](NC(=O)[C@H](CCCCNC(=N)N)NC(=O)[C@@H]2CCCN2C(=O)[C@H](Cc2ccccc2)NC(=O)[C@H](CO)NC1=O)C(=O)N1CCC[C@H]1C(=O)N[C@@H](Cc1c[nH]c2ccccc12)C(=O)N[C@@H](C(C)C)C(=O)N[C@@H](CCC(=O)O)C(=O)NCC(=O)N[C@H](C(=O)N[C@@H](C)C(N)=O)CSCCC3=O [Peptide 73]	14.1 h	–	–
CC(=O)N[C@@H](C)C(=O)N[C@H]1CSCCC(=O)N2CN3CN(C2)C(=O)CCSC[C@H](NC(=O)[C@H](CCCCNC(=N)N)NC(=O)[C@@H]2CCCN2C(=O)[C@H](Cc2ccccc2)NC(=O)[C@H](CO)NC1=O)C(=O)N1CCC[C@H]1C(=O)N[C@@H](Cc1c[nH]c2cc(Cl)ccc12)C(=O)N[C@@H](C(C)C)C(=O)N[C@@H](CCC(=O)O)C(=O)NCC(=O)N[C@H](C(=O)N[C@@H](C)C(N)=O)CSCCC3=O [Peptide 75, [-Ac]ACSFP[HArg]CP[6ClTrp]VEGCA] (Ac-ACSFP[hArg]CP[Trp(6-Cl)]VEGCA-NH2; linker 2-7-13 via TATA)	11.4 h	–	–
C[C@H](N)C(=O)N[C@H]1CSCCC(=O)N2CN3CN(C2)C(=O)CCSC[C@H](NC(=O)CNC(=O)[C@H](Cc2ccccc2)NC(=O)[C@H]([C@@H](C)O)NC(=O)[C@H](CCCNC(=N)N)NC1=O)C(=O)N[C@@H](Cc1c[nH]c2ccccc12)C(=O)N[C@@H](Cc1c[nH]c2ccccc12)C(=O)N[C@@H](CCC(=O)O)C(=O)NCC(=O)N[C@H](C(=O)N[C@@H](C)C(N)=O)CSCCC3=O [Peptide 5]	–	1550 nM	Kd [1]: 369 nM; MIC E. coli GKCW102 (EcPore) [2]: limited activity; IC50 (nM) by fluorescence polarisation with Bocillin FL as tracer, Geometric mean (Lower 95% CI of geo. Mean; Upper 95% CI of geo. Mean, n=number of values) [4]: showed binding to EcPBP3
CC(C)[C@@H]1NC(=O)[C@H](Cc2c[nH]c3ccccc23)NC(=O)[C@@H]2CCCN2C(=O)[C@@H]2CSCCC(=O)N3CN(CN(C3)C(=O)CCSC[C@H](N)C(=O)N[C@@H](CO)C(=O)N[C@@H](Cc3ccccc3)C(=O)N3CCC[C@H]3C(=O)N[C@@H](CCCCNC(=N)N)C(=O)N2)C(=O)CCSC[C@@H](C(=O)N[C@@H](C)C(N)=O)NC(=O)CNC(=O)[C@H](CCC(=O)O)NC1=O [Peptide 71] (HELM PEPTIDE1{C.S.F.P.[N=C(N)NCCCC[C@H](N[*:1])C(=O)[*:2]].C.P.W.V.E.G.C.A.[am]}|CHEM1{[O=C(CC[*:1])N1CN(C(=O)CC[*:2])CN(C(=O)CC[*:3])C1]}$PEPTIDE1,CHEM1,1:R3-1:R1|PEPTIDE1,CHEM1,6:R3-1:R2|PEPTIDE1,CHEM1,12:R3-1:R3$$$V2.0)	5.7 h	–	–
CC(C)[C@@H]1NC(=O)[C@H](Cc2c[nH]c3ccccc23)NC(=O)[C@@H]2CCCN2C(=O)[C@@H]2CSCCC(=O)N3CN(CN(C3)C(=O)CCSC[C@H](N)C(=O)N[C@@H](CO)C(=O)N[C@@H](Cc3ccccc3)C(=O)N3CCC[C@H]3C(=O)N[C@@H](CCCCNC(=N)N)C(=O)N2)C(=O)CCSC[C@@H](C(N)=O)NC(=O)CNC(=O)[C@H](CCC(=O)O)NC1=O [Peptide 72, CSFP[HArg]CPWVEGC] (HELM PEPTIDE1{C.S.F.P.[N=C(N)NCCCC[C@H](N[*:1])C(=O)[*:2]].C.P.W.V.E.G.C.[am]}|CHEM1{[O=C(CC[*:1])N1CN(C(=O)CC[*:2])CN(C(=O)CC[*:3])C1]}$PEPTIDE1,CHEM1,1:R3-1:R1|PEPTIDE1,CHEM1,6:R3-1:R2|PEPTIDE1,CHEM1,12:R3-1:R3$$$V2.0)	3 h	–	–
CC[C@H](C)[C@@H]1NC(=O)[C@@H](NC(=O)[C@H](C)N)CSCCC(=O)N2CN3CN(C2)C(=O)CCSC[C@H](NC(=O)[C@H](CCCNC(=N)N)NC(=O)[C@H](CCC(=O)O)NC(=O)[C@H](CCCNC(=N)N)NC1=O)C(=O)N[C@@H](Cc1c[nH]c2ccccc12)C(=O)N[C@@H](CC(=O)O)C(=O)N[C@@H](CC(C)C)C(=O)N[C@@H](CCCCN)C(=O)N[C@@H](CCC(=O)O)C(=O)N[C@@H](CC(N)=O)C(=O)N[C@@H](CC(=O)O)C(=O)N[C@@H](Cc1c[nH]c2ccccc12)C(=O)N[C@H](C(=O)N[C@@H](C)C(N)=O)CSCCC3=O [Peptide 14] (HELM PEPTIDE1{A.C.I.R.E.R.C.W.D.L.K.E.N.D.W.C.A.[am]}|CHEM1{[O=C(CC[*:1])N1CN(C(=O)CC[*:2])CN(C(=O)CC[*:3])C1]}$PEPTIDE1,CHEM1,2:R3-1:R1|PEPTIDE1,CHEM1,7:R3-1:R2|PEPTIDE1,CHEM1,16:R3-1:R3$$$V2.0)	–	> 100000 nM	–
CC[C@H](C)[C@@H]1NC(=O)[C@H]([C@@H](C)O)NC(=O)[C@H](CC(=O)O)NC(=O)[C@H](C)NC(=O)[C@@H](NC(=O)[C@H](C)N)CSCCC(=O)N2CN3CN(C2)C(=O)CCSC[C@@H](C(=O)N[C@@H](C)C(N)=O)NC(=O)[C@@H]2CCCN2C(=O)[C@H](Cc2ccc(O)cc2)NC(=O)[C@@H]2CCCN2C(=O)[C@H](C(C)C)NC(=O)[C@H](CSCCC3=O)NC(=O)[C@H]([C@@H](C)O)NC(=O)[C@H](CC(C)C)NC(=O)[C@H](CO)NC(=O)[C@H](Cc2ccc(O)cc2)NC1=O [Peptide 6] (HELM PEPTIDE1{A.C.A.D.T.I.Y.S.L.T.C.V.P.Y.P.C.A.[am]}|CHEM1{[O=C(CC[*:1])N1CN(C(=O)CC[*:2])CN(C(=O)CC[*:3])C1]}$PEPTIDE1,CHEM1,2:R3-1:R1|PEPTIDE1,CHEM1,11:R3-1:R2|PEPTIDE1,CHEM1,16:R3-1:R3$$$V2.0)	–	> 100000 nM	–
CC(C)C[C@@H]1NC(=O)[C@H](C)NC(=O)[C@@H]2CSCCC(=O)N3CN(CN(C3)C(=O)CCSC[C@H](NC(=O)[C@H](C)N)C(=O)N3CCC[C@H]3C(=O)N[C@@H](CCC(=O)O)C(=O)N[C@@H](CCCNC(=N)N)C(=O)N[C@@H](CC(C)C)C(=O)N2)C(=O)CCSC[C@@H](C(=O)N[C@@H](C)C(N)=O)NC(=O)[C@H](CCCNC(=N)N)NC(=O)[C@H](CC(C)C)NC(=O)[C@H]([C@@H](C)O)NC(=O)[C@@H]2CCCN2C(=O)[C@H](CC(C)C)NC(=O)CNC1=O [Peptide 12] (HELM PEPTIDE1{A.C.P.E.R.L.C.A.L.G.L.P.T.L.R.C.A.[am]}|CHEM1{[O=C(CC[*:1])N1CN(C(=O)CC[*:2])CN(C(=O)CC[*:3])C1]}$PEPTIDE1,CHEM1,2:R3-1:R1|PEPTIDE1,CHEM1,7:R3-1:R2|PEPTIDE1,CHEM1,16:R3-1:R3$$$V2.0)	–	> 100000 nM	–
